How the values were obtained:
Assay type in all cases: in vivo
human skin [1] = assay: Melanin deposition by DRS after topical treatment of a human subject's arm; conditions: 4 weeks of treatment, 1% topical twice a day; vehicle 1.248
Method: (§1) All the phospholipids were dissolved in an ethanol/propylene glycol vehicle (70/30, v/v) at the concentration of 1% of solid phospholipid powder.
(§2) Preparations 1, 2 and 3 were tested for their ability to induce skin darkening in one human subject, with informed consent. One volunteer, Fitzpatrick skin type II, with no history of skin cancer, no skin disease or unusual skin reaction, and no topical treatments on the study sites (the upper and lower parts of the arm) within a period of 30 days before enrollment and during the treatment period, was treated with preparations 1-3. Different preparations were used in four different studies. Two studies used the upper part of the arm, and two other studies used the lower part of the arm, which were treated twice a day for six to eight weeks with 10 μl of test phospholipid solutions (1%) in ethanol: propylene glycol (70:30, v/v) vehicle, or with vehicle alone. No other products were used and no sun exposure occurred during the treatment period.
(§3) Skin darkening was evaluated visually, and in some cases also by using a chromameter (ChromaMeter, Minolta, Osaka, Japan) and DRS (see Nguyen B. C., Br. J. Dermatol. 2003, 149(2):332-40). Measurements were taken at 4 and 8 weeks. […]

human skin [2] = assay: Skin colour L* by chromameter after topical treatment of a human subject's arm; conditions: 4 weeks of treatment, 1% topical twice a day; vehicle 67.28
Method: as §1, §2, §3

human skin [3] = assay: Visual evaluation of skin darkening after topical treatment of a human subject's arm; design: key to visual skin darkening, 2 WEEKS / visual skin darkening, 4 WEEKS / visual skin darkening, 8 WEEKS / visual skin darkening, 8 WKS + 1 WK / visual skin darkening, 8 WKS + 2 WKS / visual skin darkening, 8 WKS + 3 WKS: ++: Obvious visible tan-like color; +: Weak visible tan-like color; 0: No visible tan-like color; conditions: for visual skin darkening, 2 WEEKS: one volunteer, 2 weeks of treatment; for visual skin darkening, 8 WEEKS: 8 weeks of treatment; for induction of visible skin darkening (in words): 1% topical twice a day, six to eight weeks; for visual skin darkening, 8 WKS + 1 WK: 8 weeks topical treatment followed by 1 week without any treatment; for visual skin darkening, 8 WKS + 2 WKS: 8 weeks topical treatment followed by 2 weeks without any treatment; for visual skin darkening, 8 WKS + 3 WKS: 8 weeks topical treatment followed by 3 weeks without any treatment
Method: All the phospholipids were dissolved in an ethanol/propylene glycol vehicle (70/30, v/v) at the concentration of 1% of solid phospholipid powder. Preparations 1, 2 and 3 were tested for their ability to induce skin darkening in one human subject, with informed consent. One volunteer, Fitzpatrick skin type II, with no history of skin cancer, no skin disease or unusual skin reaction, and no topical treatments on the study sites (the upper and lower parts of the arm) within a period of 30 days before enrollment and during the treatment period, was treated with preparations 1-3. Different preparations were used in four different studies. Two studies used the upper part of the arm, and two other studies used the lower part of the arm, which were treated twice a day for six to eight weeks with 10 μl of test phospholipid solutions (1%) in ethanol: propylene glycol (70:30, v/v) vehicle, or with vehicle alone. No other products were used and no sun exposure occurred during the treatment period. Skin darkening was evaluated visually, and in some cases also by using a chromameter (ChromaMeter, Minolta, Osaka, Japan) and DRS (see Nguyen B. C., Br. J. Dermatol. 2003, 149(2):332-40). Measurements were taken at 4 and 8 weeks. The DRS instrument was assembled using a tungsten halogen light source (Model LS- 1, Ocean Optics, Dunedin, Fla., USA), Miniature Fiber Optic Spectrometer (Model USB2000, Ocean Optics, Dunedin, Fla., USA) and custom-designed bifurcated fiber optic probe (Multimode Fiber Optics Inc, East Hanover, N.J., USA). The scale used for reporting visual skin darkening is defined in the Table 1. The visual tan-like color was somewhat stronger on the upper arm, relative to lower arm, possibly because of slightly darker baseline color of the lower arm than the upper arm. The visual results are summarized in Table 2, including the fading time of the darker color, when treatment was terminated at 8 weeks and skin color was followed for additional three weeks.

[4] = 1% in ethanol/propylene glycol (70/30), 10 μl twice a day, topical, arm
[5] = after termination of 8 weeks topical treatment

lysophosphatidylcholine [Preparation 1]
Melanin (DRS, arbitrary units) (human skin [1]): 1.274 arbitrary units | L* (Chromameter) (human skin [2]): 68.27 | visual skin darkening, 2 WEEKS (human skin [3]; [4]): + | visual skin darkening, 4 WEEKS (human skin [3]; 1% in ethanol/propylene glycol (70/30), 10 μl twice a day, topical, arm, 4 weeks of treatment): ++ | visual skin darkening, 8 WEEKS (human skin [3]; [4]): ++ | induction of visible skin darkening (in words) (human skin [3]): induced visible skin darkening | visual skin darkening, 8 WKS + 1 WK (human skin [3]): ++ | visual skin darkening, 8 WKS + 2 WKS (human skin [3]): + | visual skin darkening, 8 WKS + 3 WKS (human skin [3]): 0

Lysophosphatidylcholine [Preparation 2]
Melanin (DRS, arbitrary units) (human skin [1]): 1.304 arbitrary units | L* (Chromameter) (human skin [2]): 67.69 | visual skin darkening, 2 WEEKS (human skin [3]; [4]): + | visual skin darkening, 8 WEEKS (human skin [3]; [4]): ++ | induction of visible skin darkening (in words) (human skin [3]): induced visible skin darkening | visual skin darkening, 8 WKS + 1 WK (human skin [3]): ++ | visual skin darkening, 8 WKS + 2 WKS (human skin [3]): + | visual skin darkening, 8 WKS + 3 WKS (human skin [3]): 0

lysophosphatidylcholine [LPC]
time at which darkening started to fade after termination of topical treatment (human skin [3]; [5]): 14 to 20 days | time the darkening remained visible after the end of the topical treatment (human skin [3]; [5]): at least 14 days | change of visible skin darkening with routine daily activities (e.g., after water and soap washing) (human skin [3]; during topical treatment): did not change
